Data on ten compounds can be found in patent US7183440B2, “Pharmaceutically useful compounds” (priority 2005, dated 2007).

Like-named read-outs stand apart in the source and are kept apart here.

The nature of data set [1]: in vitro. Format: cell-based. The conditions noted are these: monkey, 50% lethal dose/concentration, neutral red assay, 37RC cells, read-out: LC50/μM. Here is the method: Cell viability was determined using the Neutral Red assay.
The test system of a further data set is HSF. The experiment in a line: HSF activation, luciferase reporter controlled by the human hsp70 promoter in HeLa cell clone 13B. The conditions noted are these: read-out: HSF AC200/μM. The data set is classed as cell-based. As to the method: (§1) HeLa cell clone 13B, stably transfected with a luciferase reporter plasmid controlled by the human hsp70 promoter, and HeLa κB-transformed cells, stably transfected with a luciferase reporter plasmid controlled by a synthetic NF-κB-STM construct, were maintained in DMEM medium supplemented with 10% FBS, L-glutamine (2 mM) and G418 (250 μg/ml) at 37° C. in a 5% CO2 humidified atmosphere.
(§2) Cells were seeded at a density of 4×10^4 cells/well in 96-well plates. After 18–20 h, the medium was removed and cells were treated for 8 h with the test compounds (100 μl) at the appropriate dilutions in serum-free medium. For the NF-κB-dependent reporter gene assay, cells were stimulated with TPA (25 ng/ml) 2 h after exposure to the compounds.
(§3) After incubation, the medium was removed and cells were lysed in 10 μl of lysis buffer. The luciferase activity was determined by adding 100 μl of substrate and measuring the release of light using a Victor 1420 microplate reader (Wallac, Finland).
(§4) The AC200/μM for HSF is the concentration at which the tested compound doubled the HSF activity in this assay. The IC50/μM for NF-κB is the concentration at which the tested compound halved the NF-κB activity in this assay. […] The LC50/μM is the concentration at which the tested compound killed half the cells in each assay. […] (n.d. means not done)

Data set [2] relates to NF-κB. As to the kind of experiment: NF-κB-dependent luciferase reporter gene assay in HeLa κB-transformed cells stimulated with TPA. The data set is classed as cell-based, human. Here is the method:
as §1, §2, §3
(§5) The fragment Kpn I-BamH I from the pGL3 basic vector containing the luciferase gene (PROMEGA) was inserted in the pcDNA3 vector (INVITROGEN) digested with Bgl II-KpnI. (This digestion removes the CMV-promoter from pcDNA3.) The resulting new vector was digested with Kpn I-Hind III and a promoter containing a ‘5×NF-κB binding sites-TATA box’ sequence was inserted upstream of the luciferase gene. This vector has been named STM.
(§6) To obtain stable HeLa cell lines expressing the luciferase gene under the control of NF-κB, HeLa cells were transfected (using lipofectamine plus GIBCO) with the STM-Pvu I linearized vector, and selected for 20 days with G418 (800 μg/ml). After selection, the resistant HeLa cell pool was controlled (in quadruplicate samples) for luciferase activity after stimulation with TNFα, IL-1 and TPA.
as §4

The next data set has as its system Sendai virus. As to the kind of experiment: Replication of Sendai virus in 37RC cells, virus yield by haemagglutinin titration. The conditions noted are these: Respirovirus muris, read-out: ID50/μM. Format: cell-based. Here is the method: Monkey kidney 37RC cells were grown at 37° C. in RPMI medium supplemented with 5% foetal bovine serum (FBS), L-glutarine (2 mM) and antibiotics. Sendai virus was grown in the allantoic cavity of 10-day-old embryonated eggs. Viral titre was expressed in haemagglutinating units (HAU) per ml; haemagglutinin titration was done according to standard procedures, as described in C. Amici et al. (J. Virol. 68: 6890–6899, 1994). […] Confluent 37RC monolayers were infected with Sendai Virus (5 HAU/ml) for 1 h at 37° C. After 1 hour incubation, viral inoculum was removed and cells were treated with the test compounds at different concentrations. Virus yields were determined 24 h post infection by haemagglutinin titration. Mock-infected cells were treated identically and processed for cytotoxicity assay (Neutral Red assay) at the same time (see below). The results were expressed as HAU/ml (each point represents the mean of duplicate samples).

A further data set deals with Monkey kidney 37RC cells. The data set is classed as cell-based. The conditions noted are these: concentration 100% toxic to uninfected 37RC cells, visually by microscopy.
A short description of data set [3]: in vitro. To be noted: human. Format: cell-based. As to the method:
(§7) HeLa cells were plated in 96-well microtiter plates in 100 μl culture medium (4×10^4/well). After 20 hours, the cells were exposed to the test compounds at different dilutions and incubated for the next 8 h at 37° C. in a 5% CO2 humidified atmosphere. After 6 h incubation, the Alamar Blue was added in an amount equal to 10% of the culture volume (10 μl). Two hours after the addition of the Alamar Blue, the fluorescence was measured using a Victor 1420 microplate reader.

The nature of data set [4]: in vitro. To be noted: human. Here is the method:
(§8) This assay was carried out on HeLa cells using a technique analogous to that described below in Example 36(b) for Monkey Kidney 37RC cells.
as §4
(§9) Cell viability was determined using the Neutral Red assay. 37RC cells were seeded at density of 6×10^4 cells/well in 24-well plates and incubated for 24 h. Confluent 37RC monolayers were treated with the test compounds at different dilutions for 24 h at 37° C. After incubation, the medium was removed and the cells were incubated with RPMI medium containing 40 μg/ml Neutral Red dye (500 μl/well). After 2 h at 37° C., the monolayers were washed with phosphate-buffered saline (PBS) and then with a solution containing 1% CaCl2 and 0.5% formaldehyde. After washing, a solution containing 1% acetic acid/50% ethanol was added to the monolayers (250 μl/well). After 10 min at room temperature, the absorbance was determined with a microplate reader (Victor 1420, Wallac) at 540 nm.

In data set [5] the test system is HeLa cells. The experiment in a line: in vitro. Format: cell-based. The conditions noted are these: human, 8 h. Here is the method: as §7
In data set [6] the test system is HeLa cells. The experiment in a line: in vitro. To be noted: read-out: Toxicity Neutral Red LC50/μM; HeLa cells; concentration that killed half the cells. As to the method:
as §8, §4, §9

The nature of data set [7]: Blood pressure of the anaesthetized rat, intravenous infusion. To be noted: doses from 30 μg/kg/min. The data set is classed as in vivo. The source says: Most prostaglandins have strong effects on vascular smooth muscle, and will lower blood pressure in animals and humans. A compound can be tested for its effect on the blood pressure of the anaestheized rat. Prostaglandins A1 and E1 can be used for comparison. Male Wistar rats were anaesthetized and test drugs can be infused intravenously. Blood pressure and heart rate can be recorded from the femoral artery. […] It can be determined whether or not a test compound affects blood pressure at various dosages. As a control, solvent alone can be used.

Data set [8] concerns NF-κB. As to the kind of experiment: Luciferase activity of NF-κB-LUC transfected HeLa cell pool after stimulation. Format: cell-based, human. The conditions noted are these: resistant HeLa cell pool, quadruplicate samples; control 1369±149.
Source text: as §5, §6

The subject of the next data set is HSF1. To be noted: cited from earlier work.
Data set [9] concerns NF-κB. The conditions noted are these: at the same concentration (125–500 μM); cited from earlier work.
The mark [10] stands for this setting: Homo sapiens, concentration at which the compound doubled HSF activity, HeLa clone 13B, 8 h treatment.
Setting [11] is: Homo sapiens, concentration that halved NF-κB activity, HeLa reporter cells, TPA 25 ng/ml, 8 h treatment.

Consider `CC(C)/C=C1/C(=O)C=CC1NC(=O)c1ccccc1` (stereo not shown) [CTC-172, N-(5-iso-Butylidene-4-oxocyclopent-2-enyl)-benzamide], for which, in “in vitro [1]”, the CC50 at 24 h amounted to 4 µM. The EC (2-fold HSF activity) in the data set with HSF (setting [10]) was under 6.2 µM. Further, the IC50 is under 6.2 µM with NF-κB [2] (setting [11]) and 0.3 µM with Sendai virus (50% inhibitory dose/concentration at 24 hours, Sendai virus in 37RC cells). This compound yielded a TD100/μM in the data set with Monkey kidney 37RC cells of 10 µM. The CC50 at 8 h in the data set “in vitro [3]” was 50 µM.

As for `CC(C)(C)OC(=O)NC1C=CC(=O)/C1=C/c1ccccc1` (stereo not shown) [CTC-248, ((E)-5-Benzylidene-4-oxo-cyclopent-2-enyl)-carbamic acid tert-butyl ester], the CC50 at 24 h in “in vitro [1]” and in the data set “in vitro [4]” was 33 µM throughout. In addition, in the data set on HSF (setting [10]), the EC (2-fold HSF activity) was 1.8 µM. The values for the IC50 with NF-κB [2] (setting [11]) and in the data set with Sendai virus (24 h) were 4 µM and 0.6 µM, respectively. The compound also had a TD100/μM in the data set with Monkey kidney 37RC cells of 10 µM. The compound further had a CC50 in the data set on HeLa cells [5] of over 800 µM.

`COC(=O)[C@H](CS[C@@H]1CC(=O)C[C@H]1NC(=O)Oc1ccccc1)NC(=O)OC(C)(C)C` [CTM-236, (R)-2-tert-Butoxycarbonylamino-3-((1R,2R)-4-oxo-2-phenoxy-carbonyl-amino-cyclopentyl-sulfanyl)-propionic acid methyl ester]: the EC (2-fold HSF activity) in the data set with HSF (concentration at which the compound doubled HSF activity, HeLa clone 13B, 8 h treatment) is 13 µM. In addition, in the data set with NF-κB [2] (concentration that halved NF-κB activity, HeLa reporter cells, TPA 25 ng/ml, 8 h treatment), the IC50 is 10 µM. For the same compound, in the data set with HeLa cells [6], the CC50 came to 76 µM.

For the compound `CCCCC[C@H](O)/C=C/[C@H]1C=CC(=O)[C@@H]1CCCCCCC(=O)O` [Prostaglandin A1], in [7], the “effect on blood pressure” value is recorded as “dose-dependant falls in blood pressure”.

In the case of `CCCCC[C@H](O)/C=C/[C@H]1[C@H](O)CC(=O)[C@@H]1CCCCCCC(=O)O` [Prostaglandin E1], the “effect on blood pressure” value in [7] is on record as “dose-dependant falls in blood pressure”.

As to `CCCCCCCCCCCCCC(=O)O[C@@H]1[C@@H](C)[C@@]2(O)[C@@H](C=C(CO)C[C@]3(O)C(=O)C(C)=C[C@@H]23)[C@H]2C(C)(C)[C@]12OC(C)=O` [TPA], the luciferase activity in the data set on NF-κB [8] came to 7181±444.

`O=C1C=CCC1` [cyclopent-2-en-1-one]: the “concentration able to activate HSF1 and trigger synthesis of HSP70” value with HSF1 is 125 to 500 µM. Further, in the data set with NF-κB [9], the “block of NF-κB activation by chemical or physiological inducers” value is “able to block NF-κB activation”.

Regarding TNFα, the luciferase activity in the data set on NF-κB [8] was 6111±1231.

Take “[(1R,2R)-2-(Naphthalen-2-ylsulfanyl)-4-oxocyclopentyl]-carbamic acid methyl ester; compound with benzene [CTM-238]”: the EC (2-fold HSF activity) in the data set on HSF is 26 µM. The compound further returned an IC50 with NF-κB [2] of 17 µM. Besides, the CC50 in the data set on HeLa cells [6] was 113 µM.

On to “[(1R,2S)-2-(Naphthalen-2-ylsulfanyl)-4-oxocyclopentyl]-carbamic acid methyl ester; compound with benzene [CTM-237]”, for which the EC (2-fold HSF activity) with HSF was 28 µM. The compound further registered an IC50 with NF-κB [2] of 9 µM. Further, in the data set with HeLa cells [6], the CC50 is 183 µM.
